Results from US20240025863A1, “SOS1 PROTEIN DEGRADERS, PHARMACEUTICAL COMPOSITIONS THEREOF, AND THEIR THERAPEUTIC APPLICATIONS” (BioTheryX, Inc., priority 2020, published 2024).

Columns and labels:
Type in all cases: cell-based
H358 cells (G12C) = assay: Cell viability assay (CellTiter-Glo), H358 cells; conditions: Homo sapiens, NCI-H358, 72 h; H358 cells, 3 days incubation, CellTiter-Glo luminescence; read-out: Inhibition of Cancerous Cells IC50 H358 (G12C)
Procedure: (§1) H358, H23, SW48, and AsPC-1 cells were cultured in RPMI 1640 media supplemented with 10% fetal bovine serum, streptomycin, and penicillin. Lovo and SW480 cells were cultured in DMEM media supplemented with 10% fetal bovine serum, streptomycin, and penicillin. The cell lines were plated in their respective medium supplemented with 2.5% fetal bovine serum, streptomycin, and penicillin. All cell lines were plated in white walled 96-well plates at 2,000 cells/well or 384-well plates at 500 cells/well, except Lovo, which were plated at 4,000 or 1,000 cells/well, respectively. The cells were incubated in DMSO (control) or a compound for 3 days at 37° C. under 5% CO2. A CELLTITER-GLO® reagent (100 μL) was then added to each well. After a 10 min incubation with shaking, luminescence was measured using an ENVISION® multimode plate reader.

SW480 cells (G12V) = assay: Cell viability assay (CellTiter-Glo), SW480 cells; conditions: Homo sapiens, 72 h; SW480 cells, 3 days incubation, CellTiter-Glo luminescence; read-out: Inhibition of Cancerous Cells IC50 SW480 (G12V)
Procedure: as §1

Lovo cells (G13D) = assay: Cell viability assay (CellTiter-Glo), Lovo cells; conditions: Homo sapiens, 72 h; Lovo cells, 3 days incubation, CellTiter-Glo luminescence; read-out: Inhibition of Cancerous Cells IC50 Lovo (G13D)
Procedure: as §1

SW48 cells (wt) = assay: Cell viability assay (CellTiter-Glo), SW48 cells; conditions: Homo sapiens, 72 h; SW48 cells, 3 days incubation, CellTiter-Glo luminescence; read-out: Inhibition of Cancerous Cells IC50 SW48 (wt)
Procedure: as §1

| IC50 (H358 cells (G12C)) | IC50 (SW480 cells (G12V)) | IC50 (Lovo cells (G13D)) | IC50 (SW48 cells (wt)) | Compound |
| --- | --- | --- | --- | --- |
| 1200 nM | 660 nM | 1000 nM | 680 nM | COc1cc2c(N[C@H](C)c3cccc(Br)c3)nc(C)nc2cc1OCCCCCCNC(=O)[C@H](CC(C)C)NC(=O)[C@@H](O)[C@H](N)Cc1ccccc1 [Compound B6, (S)-2-((2S,3R)-3-amino-2-hydroxy-4-phenylbutanamido)-N-(6-((4-(((R)-1-(3-bromophenyl)ethyl)amino)-6-methoxy-2-methylquinazolin-7-yl)oxy)hexyl)-4-methylpentanamide] |
| 1200 nM | 550 nM | 390 nM | 1000 nM | COc1cc2c(N[C@H](C)c3cccc(Br)c3)nc(C)nc2cc1OCCCCCCCCCCNC(=O)[C@H](CC(C)C)NC(=O)[C@@H](O)[C@H](N)Cc1ccccc1 [Compound B8, (S)-2-((2S,3R)-3-Amino-2-hydroxy-4-phenylbutanamido)-N-(10-((4-(((R)-1-(3-bromophenyl)ethyl)amino)-6-methoxy-2-methylquinazolin-7-yl)oxy)decyl)-4-methylpentanamide] |
| > 10000 nM | > 10000 nM | > 10000 nM | > 10000 nM | COc1ccc(C2=N[C@@H](c3ccc(Cl)cc3)[C@@H](c3ccc(Cl)cc3)N2C(=O)N2CCN(CC(=O)NCCCCCCOc3cc4nc(C)nc(N[C@H](C)c5cccc(Br)c5)c4cc3OC)C(=O)C2)c(OC(C)C)c1 [Compound C1, 2-(4-((4S,5R)-4,5-Bis(4-chlorophenyl)-2-(2-isopropoxy-4-methoxyphenyl)-4,5-dihydro-1H-imidazole-1-carbonyl)-2-oxopiperazin-1-yl)-N-(6-((4-(((R)-1-(3-bromophenyl)-ethyl)amino)-6-methoxy-2-methylquinazolin-7-yl)oxy)hexyl)acetamide] |
| > 10000 nM | > 10000 nM | > 10000 nM | > 10000 nM | COc1ccc(C2=N[C@@H](c3ccc(Cl)cc3)[C@@H](c3ccc(Cl)cc3)N2C(=O)N2CCN(CC(=O)NCCCCCCCCOc3cc4nc(C)nc(N[C@H](C)c5cccc(Br)c5)c4cc3OC)C(=O)C2)c(OC(C)C)c1 [Compound C2, 2-(4-((4S,5R)-4,5-bis(4-chlorophenyl)-2-(2-isopropoxy-4-methoxyphenyl)-4,5-dihydro-1H-imidazole-1-carbonyl)-2-oxopiperazin-1-yl)-N-(8-((4-(((R)-1-(3-bromophenyl)-ethyl)amino)-6-methoxy-2-methylquinazolin-7-yl)oxy)octyl)acetamide] |
| > 10000 nM | > 10000 nM | > 10000 nM | > 10000 nM | COc1ccc(C2=N[C@@H](c3ccc(Cl)cc3)[C@@H](c3ccc(Cl)cc3)N2C(=O)N2CCN(CC(=O)NCCCCCCCCCCOc3cc4nc(C)nc(N[C@H](C)c5cccc(Br)c5)c4cc3OC)C(=O)C2)c(OC(C)C)c1 [Compound C3, 2-(4-((4S,5R)-4,5-Bis(4-chlorophenyl)-2-(2-isopropoxy-4-methoxyphenyl)-4,5-dihydro-1H-imidazole-1-carbonyl)-2-oxopiperazin-1-yl)-N-(10-((4-(((R)-1-(3-bromophenyl)-ethyl)amino)-6-methoxy-2-methylquinazolin-7-yl)oxy)decyl)acetamide] |
| > 10000 nM | > 10000 nM | > 10000 nM | > 10000 nM | COc1ccc(C2=N[C@@H](c3ccc(Cl)cc3)[C@@H](c3ccc(Cl)cc3)N2C(=O)N2CCN(CC(=O)NCCCCCCCCOc3cc4nc(C)nc(N[C@H](C)c5cccc(Br)c5)c4cc3OC)CC2)c(OC(C)C)c1 [Compound C4, 2-(4-((4S,5R)-4,5-bis(4-chlorophenyl)-2-(2-isopropoxy-4-methoxyphenyl)-4,5-dihydro-1H-imidazole-1-carbonyl)piperazin-1-yl)-N-(8-((4-(((R)-1-(3-bromophenyl)ethyl)-amino)-6-methoxy-2-methylquinazolin-7-yl)oxy)octyl)acetamide] |
| > 10000 nM | > 10000 nM | > 10000 nM | > 10000 nM | COc1ccc(C2=N[C@@H](c3ccc(Cl)cc3)[C@@H](c3ccc(Cl)cc3)N2C(=O)N2CCN(CC(=O)NCCCCCCCCCCOc3cc4nc(C)nc(N[C@H](C)c5cccc(Br)c5)c4cc3OC)CC2)c(OC(C)C)c1 [Compound C5, 2-(4-((4S,5R)-4,5-Bis(4-chlorophenyl)-2-(2-isopropoxy-4-methoxyphenyl)-4,5-dihydro-1H-imidazole-1-carbonyl)piperazin-1-yl)-N-(10-((4-(((R)-1-(3-bromophenyl)ethyl)-amino)-6-methoxy-2-methylquinazolin-7-yl)oxy)decyl)acetamide] |
| > 10000 nM | > 10000 nM | > 10000 nM | > 10000 nM | COc1ccc(C2=N[C@@H](c3ccc(Cl)cc3)[C@@H](c3ccc(Cl)cc3)N2C(=O)N2CCN(CC(=O)NCCCCCCCCCCCCOc3cc4nc(C)nc(N[C@H](C)c5cccc(Br)c5)c4cc3OC)CC2)c(OC(C)C)c1 [Compound C6, 2-(4-((4S,5R)-4,5-Bis(4-chlorophenyl)-2-(2-isopropoxy-4-methoxyphenyl)-4,5-dihydro-1H-imidazole-1-carbonyl)piperazin-1-yl)-N-(12-((4-(((R)-1-(3-bromophenyl)ethyl)-amino)-6-methoxy-2-methylquinazolin-7-yl)oxy)dodecyl)acetamide] |

Continued, compound first:

| Compound | IC50 (H358 cells (G12C)) | IC50 (SW480 cells (G12V)) | IC50 (Lovo cells (G13D)) | IC50 (SW48 cells (wt)) |
| --- | --- | --- | --- | --- |
| COc1cc2c(N[C@H](C)c3cccc(Br)c3)nc(C)nc2cc1OCCCCCN1CCN(C(=O)CNc2cc(F)cc3c2CN(C2CCC(=O)NC2=O)C3=O)CC1 (stereo partly drawn) [Compound A55, 3-(4-((2-(4-(5-((4-(((R)-1-(3-Bromophenyl)ethyl)amino)-6-methoxy-2-methyl-quinazolin-7-yl)oxy)pentyl)piperazin-1-yl)-2-oxoethyl)amino)-6-fluoro-1-oxoisoindolin-2-yl)piperidine-2,6-dione] | 2000 nM | 1800 nM | 640 nM | 1400 nM |
| CNCc1ccccc1-c1csc([C@H](C)Nc2nc(C)nc3c(CCCCCCCN4CCC(c5cc(F)cc6c5CN(C5CCC(=O)NC5=O)C6=O)CC4)c(OC)c(OC)cc23)c1 (stereo partly drawn) [Compound A56, 3-(4-(1-(7-(6,7-Dimethoxy-2-methyl-4-(((S)-1-(4-(2-((methylamino)methyl)-phenyl)thiophen-2-yl)ethyl)amino)quinazolin-8-yl)heptyl)piperidin-4-yl)-6-fluoro-1-oxoisoindolin-2-yl)piperidine-2,6-dione] | 360 nM | 260 nM | 150 nM | 190 nM |
| COc1cc2c(N[C@H](C)c3cccc(Br)c3)nc(C)nc2cc1OCCCCN1CCN(C(=O)CNc2cc(F)cc3c2CN(C2CCC(=O)NC2=O)C3=O)CC1 (stereo partly drawn) [Compound A57, 3-(4-((2-(4-(4-((4-(((R)-1-(3-Bromophenyl)ethyl)amino)-6-methoxy-2-methyl-quinazolin-7-yl)oxy)butyl)piperazin-1-yl)-2-oxoethyl)amino)-6-fluoro-1-oxoisoindolin-2-yl)piperidine-2,6-dione] | 3300 nM | 5200 nM | 900 nM | 2900 nM |
| COc1cc2c(N[C@H](C)c3cccc(Br)c3)nc(C)nc2cc1OCCCCCCCCN1CCC(c2cc(F)cc3c2CN(C2CCC(=O)NC2=O)C3=O)CC1 (stereo partly drawn) [Compound A58, 3-(4-(1-(8-((4-(((R)-1-(3-Bromophenyl)ethyl)amino)-6-methoxy-2-methyl-quinazolin-7-yl)oxy)octyl)piperidin-4-yl)-6-fluoro-1-oxoisoindolin-2-yl)piperidine-2,6-dione] | 1200 nM | 360 nM | 300 nM | 420 nM |
